{"source": "patent US10703770B2", "about": "“Compositions and methods for the dissolution and depolymerization of lignin” (National Technology & Engineering Solutions of Sandia, LLC, priority 2016, dated 2020)", "key": {"[1]": {"test": "Solubilization of alkali lignin in solvents", "details": "20 °C (room temperature), solvent 5 g", "text": "Alkali lignin (average molecular weight of lignin obtained from Sigma-Aldrich reported as 60.0 kDa) with low sulfonate content was used as a technical lignin substrate for the rapid solubilization experiments.\nConfocal microscopy (10× magnification) was used to observe the morphologies of lignin before and after solubilization and precipitation, and the results are shown in FIGS. 8D-8F."}, "[2]": {"details": "25° C.; cited from earlier work"}, "[3]": {"test_system": "Saccharomyces cerevisiae strain BY4741", "test": "Toxicity test of [EOA][OAc] on yeast growth", "format": "cell-based", "method": "FIG. 5A. Toxicity test of [EOA][OAc]. Conditions: yeast strain: Saccharomyces cerevisiae strain BY4741, growth condition: in 24-well microplate with orbital-high intensity shaking/31° C./in IL solution (10 g/L glucose in each IL solutions), volume of the cell culture was 0.5 mL.\nFor toxicity screening, a wild type yeast strain BY4741 was technically used and it was immersed in various IL concentrations from 2.5 to 15 wt %."}, "[4]": {"test_system": "CTec2+HTec2 (9:1, v/v)", "test": "Tolerance of commercial enzyme cocktails to IL in saccharification", "format": "biochemical", "method": "FIG. 4C. Effects of some parameters on the sugar yield: IL concentration in hydrolysis. Normal operation conditions: pretreatment, 10 wt % SG loading, 90 wt % IL, 160° C., 0.5 h (3 h for eucalyptus); saccharification, 10 wt % IL, 20 mg protein/g SG, 50 ° C., 72 h.\nAs a result, the associated IL recycling and wastewater treatment costs create significant economic and process engineering challenges for the commercial scale-up of this technology. In the present process, commercial cocktails of CTec2+HTec2 (9:1, v/v) could tolerant about 10 wt % IL in saccharification process (FIG. 4C). […] [OAc] is tolerant to commercial cocktails not only in pH match, but also in its low toxic nature.\nGenerally, SSF requires compatible fermentation and saccharification conditions, with a similar pH, temperature and optimum substrate concentration. In a case of IL participating SSF, a compromise IL concentration for the two stages is an accessional requirement. […] [OAc] concentration of 10 wt %, however, increasing the [EOA] […] Thus, it would be interesting to see the performance of the wild yeast under different IL concentrations.\nOne-pot pretreatment, saccharification and fermentation: In a typical procedure, SG (100 mg) was mixed with ([EOA][OAc]) at a 10% biomass loading in a 15 mL capped glass pressure tube and pretreated in a convection oven at 160° C. for 0.5 h. […]"}, "[5]": {"details": "reported (refs 24, 25); cited from earlier work"}}, "note": "Where “and” joins values, the source holds several entries; their conditions need not be identical. Equal values may be shown once. Entries after “also recorded” stand apart in the source; their conditions may differ."}
{"smiles": "CC1COC(=O)O1", "note": "(stereo not drawn) [PC, propylene carbonate, reference compound]", "values": [{"measurement": "Solubility (wt %) of alkali lignin", "setting": "[1]", "value": "Negligible solubility; also recorded: Trace"}]}
{"smiles": "OCC(O)CO", "note": "[Glycerol]", "values": [{"measurement": "viscosity", "setting": "[2]", "value": 0.95, "unit": "N s/m^2"}]}
{"smiles": "CC(=O)O.NCCO", "note": "[[EOA][OAc], ethanolamine acetate]", "values": [{"measurement": "yeast growth", "setting": "[3]; 5 wt % IL concentration", "value": "better yeast growth"}, {"measurement": "yeast strain growth", "setting": "[3]; IL concentrations from 2.5 to 15 wt %, 31 °C, 10 g/L glucose", "value": "better growth occurs in a lower IL titer below 10 wt %"}, {"measurement": "IL concentration tolerated by commercial cocktails in saccharification", "setting": "[4]; CTec2+HTec2 (9:1, v/v), 50 °C, 72 h", "value": "about 10 wt %"}, {"measurement": "glucose yield at raised IL concentration in saccharification", "setting": "[4]; [EOA][OAc] concentration over 10 wt %", "value": "decreased glucose yield"}, {"measurement": "thermal decomposition temperature, Td", "setting": "[5]", "value": "above 200 °C"}]}
{"smiles": "OCCO", "note": "[EG, ethylene glycol]", "values": [{"measurement": "Solubility (wt %) of alkali lignin", "setting": "[1]", "value": "> 30 wt % and ~31 wt %"}, {"measurement": "viscosity", "setting": "[2]", "value": 0.0162, "unit": "N s/m^2"}]}
